#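 In this assay, cells in 96-well plates receive the compound at five concentrations for 48 hours. Endpoints are linearly interpolated between the surrounding concentrations. Abbreviation: GI50, concentration required for 50% inhibition of growth.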 The source made the active and inactive calls. No stated cut-off is given here; in the data, active = GI50 up to about 1.1 µM and inactive = higher.
# Key:
# Assay in all cases: inhibition of tumour cell growth, NCI panel, 48 h
# 786-0 = test system: 786-0
# A498 = test system: A498
# ACHN = test system: ACHN
# HOP-92 = test system: HOP-92
# HT-29 = test system: HT-29
# Hs-578T = test system: Hs-578T
# MDA-MB-435 = test system: MDA-MB-435
# MOLT-4 = test system: MOLT-4
# NCI-H23 = test system: NCI-H23
# NCI/ADR-RES = test system: NCI/ADR-RES
# SF-268 = test system: SF-268
# SR = test system: SR
# TK-10 = test system: TK-10
# U-251 = test system: U-251
# CCRF-CEM = test system: CCRF-CEM
# NCI-H226 = test system: NCI-H226
# RPMI-8226 = test system: RPMI-8226
# SF-539 = test system: SF-539
# SK-MEL-5 = test system: SK-MEL-5
# SK-OV-3 = test system: SK-OV-3
Compound,GI50 (786-0),GI50 (A498),GI50 (ACHN),GI50 (HOP-92),GI50 (HT-29),GI50 (Hs-578T),GI50 (MDA-MB-435),GI50 (MOLT-4),GI50 (NCI-H23),GI50 (NCI/ADR-RES),GI50 (SF-268),GI50 (SR),GI50 (TK-10),GI50 (U-251),GI50 (CCRF-CEM),GI50 (NCI-H226),GI50 (RPMI-8226),GI50 (SF-539),GI50 (SK-MEL-5),GI50 (SK-OV-3)
O=C(N/N=C\c1cccc(O)c1)c1ccncc1,> 100 µM (inactive),> 100 µM (inactive),> 100 µM (inactive),> 100 µM (inactive),> 100 µM (inactive),> 100 µM (inactive),> 100 µM (inactive),> 100 µM (inactive),> 100 µM (inactive),> 100 µM (inactive),> 100 µM (inactive),> 100 µM (inactive),> 100 µM (inactive),> 100 µM (inactive),,,,,,
CN(Cc1cccc2ccccc12)Cc1cccc2ccccc12,37.8 µM (inactive),28.8 µM (inactive),37.6 µM (inactive),,15.4 µM (inactive),44.3 µM (inactive),35.7 µM (inactive),15.3 µM (inactive),26.6 µM (inactive),47.5 µM (inactive),41.6 µM (inactive),30.8 µM (inactive),> 100 µM (inactive),22.6 µM (inactive),16.6 µM (inactive),30.9 µM (inactive),22.6 µM (inactive),23.8 µM (inactive),18.5 µM (inactive),65.6 µM (inactive)
COc1ccc(N2C(=O)/C(=C\c3ccccc3)SC2c2cc(OC)c(OC)c(OC)c2)cc1 (stereo unspecified),,73.8 µM (inactive),60.3 µM (inactive),> 100 µM (inactive),96.6 µM (inactive),84.5 µM (inactive),20 µM (inactive),65.6 µM (inactive),92.7 µM (inactive),> 100 µM (inactive),> 100 µM (inactive),29.9 µM (inactive),> 100 µM (inactive),43.9 µM (inactive),10.7 µM (inactive),> 100 µM (inactive),,,48.4 µM (inactive),48.9 µM (inactive)
CCc1cc2c(c3c1CCCC3)CC1(Cc3ccc(C(=O)OC)cc3C1)C2 (stereo unspecified),> 100 µM (inactive),,> 100 µM (inactive),36.7 µM (inactive),73.8 µM (inactive),60.3 µM (inactive),52.6 µM (inactive),35.4 µM (inactive),> 100 µM (inactive),> 100 µM (inactive),> 100 µM (inactive),28.9 µM (inactive),> 100 µM (inactive),86.1 µM (inactive),18.3 µM (inactive),> 100 µM (inactive),44.6 µM (inactive),> 100 µM (inactive),71.8 µM (inactive),> 100 µM (inactive)
CCOc1cc(NC(C)=O)ccc1C(=O)NN1C(=O)/C(=C/c2cc(OC)c(OC)c(OC)c2)N=C1c1ccccc1,> 100 µM (inactive),> 100 µM (inactive),> 100 µM (inactive),23 µM (inactive),> 100 µM (inactive),> 100 µM (inactive),> 100 µM (inactive),> 100 µM (inactive),> 100 µM (inactive),> 100 µM (inactive),86.9 µM (inactive),> 100 µM (inactive),,,> 100 µM (inactive),> 100 µM (inactive),,> 100 µM (inactive),65.8 µM (inactive),> 100 µM (inactive)
CCN(CC)C(=S)SS(=O)(=O)c1cccc(N)c1,> 100 µM (inactive),> 100 µM (inactive),> 100 µM (inactive),> 100 µM (inactive),> 100 µM (inactive),> 100 µM (inactive),> 100 µM (inactive),> 100 µM (inactive),> 100 µM (inactive),> 100 µM (inactive),> 100 µM (inactive),> 100 µM (inactive),> 100 µM (inactive),> 100 µM (inactive),,> 100 µM (inactive),> 100 µM (inactive),> 100 µM (inactive),> 100 µM (inactive),> 100 µM (inactive)
COc1c(O)cc2c(c1O)C(=O)/C(=C/c1ccc(O)cc1)CO2,30.8 µM (inactive),40 µM (inactive),19.8 µM (inactive),36.1 µM (inactive),20.1 µM (inactive),30.2 µM (inactive),33.6 µM (inactive),36 µM (inactive),26.8 µM (inactive),22.9 µM (inactive),29.1 µM (inactive),13.5 µM (inactive),35.5 µM (inactive),33.7 µM (inactive),18.1 µM (inactive),,9.33 µM (inactive),20.5 µM (inactive),22 µM (inactive),24.7 µM (inactive)
COc1cc(C[C@@]2(C)[C@@H]3CCC[C@H](CO)[C@@]3(C)CC[C@@H]2C)c(Cl)c(OC)c1,15.7 µM (inactive),,16 µM (inactive),14.5 µM (inactive),13.3 µM (inactive),21.5 µM (inactive),13.7 µM (inactive),12.1 µM (inactive),19.6 µM (inactive),15.2 µM (inactive),14.9 µM (inactive),16 µM (inactive),19.5 µM (inactive),15.5 µM (inactive),29.4 µM (inactive),15.8 µM (inactive),20.2 µM (inactive),14.7 µM (inactive),17 µM (inactive),17.5 µM (inactive)
CC1OC2OC3C(OCC(O)C3O)OC(=O)[C@]34CCC(C)(C)CC3C3=CCC5[C@@]6(C)C[C@H](O)[C@H](OC7OC(CO)C(O)C(O)C7OC7OCC(OC(=O)CC(C)(O)CC(=O)OC1C(O)C2O)C(O)C7O)[C@@](C)(CO)C6CC[C@@]5(C)[C@]3(C)CC4 (stereo partly specified),12.1 µM (inactive),,6.34 µM (inactive),2.32 µM (inactive),2.73 µM (inactive),8.34 µM (inactive),5.89 µM (inactive),8.89 µM (inactive),3.1 µM (inactive),12.7 µM (inactive),2.45 µM (inactive),6.35 µM (inactive),8.79 µM (inactive),3.48 µM (inactive),5.68 µM (inactive),14.9 µM (inactive),4.17 µM (inactive),12.7 µM (inactive),4.18 µM (inactive),3.19 µM (inactive)
CN(C)CCNC(=O)c1cccc2c(NCC(=O)O)c3ccccc3nc12,6.87 µM (inactive),18.6 µM (inactive),5.82 µM (inactive),8.04 µM (inactive),3.07 µM (inactive),18.5 µM (inactive),11.4 µM (inactive),4.08 µM (inactive),15.2 µM (inactive),11.9 µM (inactive),11.5 µM (inactive),1.36 µM (inactive),31 µM (inactive),24.5 µM (inactive),36 µM (inactive),4.82 µM (inactive),16.5 µM (inactive),,10.6 µM (inactive),21.1 µM (inactive)
COC(=O)C1Cc2c(OC)ccc(OC)c2C(O)C1C(=O)OC (stereo unspecified),> 100 µM (inactive),,> 100 µM (inactive),> 100 µM (inactive),> 100 µM (inactive),> 100 µM (inactive),> 100 µM (inactive),> 100 µM (inactive),> 100 µM (inactive),> 100 µM (inactive),> 100 µM (inactive),> 100 µM (inactive),> 100 µM (inactive),> 100 µM (inactive),> 100 µM (inactive),> 100 µM (inactive),> 100 µM (inactive),> 100 µM (inactive),> 100 µM (inactive),
Cc1cc(S(=O)(=O)[N-]/C(=N/S(=O)(=O)c2ccc(Cl)cc2)[n+]2ccc(N(C)C)cc2)c(S)cc1Cl,> 100 µM (inactive),26.4 µM (inactive),> 100 µM (inactive),,44.6 µM (inactive),54.8 µM (inactive),> 100 µM (inactive),0.656 µM (active),> 100 µM (inactive),> 100 µM (inactive),89.9 µM (inactive),< 0.01 µM (active),49.2 µM (inactive),47 µM (inactive),46.2 µM (inactive),33.8 µM (inactive),48 µM (inactive),83.4 µM (inactive),> 100 µM (inactive),41.2 µM (inactive)
COc1ccc(CC2COc3cc(OC)cc(OC)c3C2=O)cc1 (stereo unspecified),19 µM (inactive),79.3 µM (inactive),46.8 µM (inactive),25.9 µM (inactive),17.6 µM (inactive),17.5 µM (inactive),3.18 µM (inactive),30.3 µM (inactive),23.6 µM (inactive),8.34 µM (inactive),32.7 µM (inactive),4.57 µM (inactive),21.3 µM (inactive),37 µM (inactive),,,15.3 µM (inactive),14.4 µM (inactive),21.1 µM (inactive),19.8 µM (inactive)
CN(/N=C/c1ccc(OCc2cccc(COc3ccc(C=O)cc3)n2)cc1)c1cnn(-c2ccc(Cl)cc2Cl)c(=O)c1Cl,81.8 µM (inactive),48.5 µM (inactive),73.5 µM (inactive),,> 100 µM (inactive),> 100 µM (inactive),> 100 µM (inactive),> 100 µM (inactive),> 100 µM (inactive),21.2 µM (inactive),56 µM (inactive),> 100 µM (inactive),64.9 µM (inactive),26.9 µM (inactive),> 100 µM (inactive),> 100 µM (inactive),53.1 µM (inactive),12.5 µM (inactive),> 100 µM (inactive),
C#C/C=C\CCCC/C=C\C#CC#CCCCC#CC#C[C@H](COS(=O)(=O)O)OS(=O)(=O)O,> 100 µM (inactive),,> 100 µM (inactive),> 100 µM (inactive),> 100 µM (inactive),> 100 µM (inactive),> 100 µM (inactive),> 100 µM (inactive),> 100 µM (inactive),> 100 µM (inactive),> 100 µM (inactive),> 100 µM (inactive),> 100 µM (inactive),> 100 µM (inactive),> 100 µM (inactive),,> 100 µM (inactive),> 100 µM (inactive),> 100 µM (inactive),

# Source: ChEMBL document CHEMBL1201862, “PubChem BioAssay data set” (2004)
